Test system: 958667-338-R-J2-PDC tumor spheroids viability
Experiment: Anticancer human tumor 958667-338-R-J2-PDC patient-derived colon adenocarcinoma cell line growth inhibition [PI3K]
Conditions: spheroids with HUVEC and MSC; for IC50: curve of first compound; for viability, T/C: stronger effect = lower value
In short: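 Agents were dosed from a top concentration near clinical Cmax (otherwise 10 microM) in half-log decrements, alone or combined with PI3K inhibitors. The spheroids contain tumor cells plus endothelial (HUVEC) and MSC stroma; viability is measured.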

[1] = second compound 0.0316 µM, first compound 0.0316 µM
[2] = second compound 0.0316 µM, first compound 0.1 µM
[3] = second compound 0.1 µM, first compound 0.0316 µM
[4] = second compound 0.1 µM, first compound 0.1 µM
[5] = second compound 0.316 µM, first compound 0.0316 µM
[6] = second compound 0.316 µM, first compound 0.1 µM
[7] = second compound 1 µM, first compound 0.0316 µM
[8] = second compound 1 µM, first compound 0.1 µM
[9] = second compound 3.16 µM, first compound 0.0316 µM
[10] = second compound 3.16 µM, first compound 0.1 µM
[11] = second compound 10 µM, first compound 0.0316 µM
[12] = second compound 10 µM, first compound 0.1 µM
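Also: spheroids exposed to compounds for seven days before readout.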

## CC(=O)c1c(C)c2cnc(Nc3ccc(N4CCNCC4)cn3)nc2n(C2CCCC2)c1=O + CC(Nc1ncnc2nc[nH]c12)c1cc2cccc(Cl)c2c(=O)n1-c1ccccc1
Second compound 0.0316 µM
  IC50: > 0.1 µM
Second compound 0.1 µM
  IC50: > 0.1 µM
Second compound 0.316 µM
  IC50: > 0.1 µM
Second compound 1 µM
  IC50: > 0.1 µM
Second compound 3.16 µM
  IC50: > 0.1 µM
Second compound 10 µM
  IC50: > 0.1 µM
Second compound 0.0316 µM, first compound 0.000316 µM
  viability, T/C: 106%
Second compound 0.0316 µM, first compound 0.001 µM
  viability, T/C: 101%
Second compound 0.0316 µM, first compound 0.00316 µM
  viability, T/C: 95.3%
Second compound 0.0316 µM, first compound 0.01 µM
  viability, T/C: 117%
[1]
  viability, T/C: 90.2%
[2]
  viability, T/C: 91.6%
Second compound 0.1 µM, first compound 0.000316 µM
  viability, T/C: 117%
Second compound 0.1 µM, first compound 0.001 µM
  viability, T/C: 103%
Second compound 0.1 µM, first compound 0.00316 µM
  viability, T/C: 89.2%
Second compound 0.1 µM, first compound 0.01 µM
  viability, T/C: 96.8%
[3]
  viability, T/C: 105%
[4]
  viability, T/C: 74.4%
Second compound 0.316 µM, first compound 0.000316 µM
  viability, T/C: 98.6%
Second compound 0.316 µM, first compound 0.001 µM
  viability, T/C: 89.5%
Second compound 0.316 µM, first compound 0.00316 µM
  viability, T/C: 91.3%
Second compound 0.316 µM, first compound 0.01 µM
  viability, T/C: 103%
[5]
  viability, T/C: 118%
[6]
  viability, T/C: 83.1%
Second compound 1 µM, first compound 0.000316 µM
  viability, T/C: 99.3%
Second compound 1 µM, first compound 0.001 µM
  viability, T/C: 126%
Second compound 1 µM, first compound 0.00316 µM
  viability, T/C: 95.4%
Second compound 1 µM, first compound 0.01 µM
  viability, T/C: 106%
[7]
  viability, T/C: 104%
[8]
  viability, T/C: 87.9%
Second compound 3.16 µM, first compound 0.000316 µM
  viability, T/C: 108%
Second compound 3.16 µM, first compound 0.001 µM
  viability, T/C: 71.5%
Second compound 3.16 µM, first compound 0.00316 µM
  viability, T/C: 118%
Second compound 3.16 µM, first compound 0.01 µM
  viability, T/C: 97.5%
[9]
  viability, T/C: 97%
[10]
  viability, T/C: 95.7%
Second compound 10 µM, first compound 0.000316 µM
  viability, T/C: 103%
Second compound 10 µM, first compound 0.001 µM
  viability, T/C: 79.5%
Second compound 10 µM, first compound 0.00316 µM
  viability, T/C: 95%
Second compound 10 µM, first compound 0.01 µM
  viability, T/C: 101%
[11]
  viability, T/C: 90.4%
[12]
  viability, T/C: 67.6%

## CCCS(=O)(=O)Nc1ccc(F)c(C(=O)c2c[nH]c3ncc(-c4ccc(Cl)cc4)cc23)c1F + CC(Nc1ncnc2nc[nH]c12)c1cc2cccc(Cl)c2c(=O)n1-c1ccccc1
Second compound 0.0316 µM
  IC50: 7.99 µM
Second compound 0.1 µM
  IC50: 6.5 µM
Second compound 0.316 µM
  IC50: 6.36 µM
Second compound 1 µM
  IC50: 6.31 µM
Second compound 3.16 µM
  IC50: 6.66 µM
Second compound 10 µM
  IC50: 6.18 µM
[1]
  viability, T/C: 121%
[2]
  viability, T/C: 97.5%
Second compound 0.0316 µM, first compound 0.316 µM
  viability, T/C: 99.8%
Second compound 0.0316 µM, first compound 1 µM
  viability, T/C: 116%
Second compound 0.0316 µM, first compound 3.16 µM
  viability, T/C: 131%
Second compound 0.0316 µM, first compound 10 µM
  viability, T/C: 34.7%
[3]
  viability, T/C: 95.8%
[4]
  viability, T/C: 91.7%
Second compound 0.1 µM, first compound 0.316 µM
  viability, T/C: 101%
Second compound 0.1 µM, first compound 1 µM
  viability, T/C: 99.9%
Second compound 0.1 µM, first compound 3.16 µM
  viability, T/C: 133%
Second compound 0.1 µM, first compound 10 µM
  viability, T/C: 17.6%
[5]
  viability, T/C: 82.2%
[6]
  viability, T/C: 79.8%
Second compound 0.316 µM, first compound 0.316 µM
  viability, T/C: 92.4%
Second compound 0.316 µM, first compound 1 µM
  viability, T/C: 104%
Second compound 0.316 µM, first compound 3.16 µM
  viability, T/C: 134%
Second compound 0.316 µM, first compound 10 µM
  viability, T/C: 18.5%
[7]
  viability, T/C: 102%
[8]
  viability, T/C: 107%
Second compound 1 µM, first compound 0.316 µM
  viability, T/C: 121%
Second compound 1 µM, first compound 1 µM
  viability, T/C: 89.5%
Second compound 1 µM, first compound 3.16 µM
  viability, T/C: 101%
Second compound 1 µM, first compound 10 µM
  viability, T/C: 16.6%
[9]
  viability, T/C: 121%
[10]
  viability, T/C: 119%
Second compound 3.16 µM, first compound 0.316 µM
  viability, T/C: 83.4%
Second compound 3.16 µM, first compound 1 µM
  viability, T/C: 116%
Second compound 3.16 µM, first compound 3.16 µM
  viability, T/C: 117%
Second compound 3.16 µM, first compound 10 µM
  viability, T/C: 16.2%
[11]
  viability, T/C: 79.5%
[12]
  viability, T/C: 99%
Second compound 10 µM, first compound 0.316 µM
  viability, T/C: 103%
Second compound 10 µM, first compound 1 µM
  viability, T/C: 91.9%
Second compound 10 µM, first compound 3.16 µM
  viability, T/C: 99.6%
Second compound 10 µM, first compound 10 µM
  viability, T/C: 17.9%

Source: PubChem BioAssay AID1963963 (Molecular Pharmacology Branch, DTP, NCI, 2024)
